The target in one assay is T1, human H4 receptor (Homo sapiens, UniProt Q9H3N8).
T1 construct: expressed in transfected cells
T1 sequence (Q9H3N8 whole entry): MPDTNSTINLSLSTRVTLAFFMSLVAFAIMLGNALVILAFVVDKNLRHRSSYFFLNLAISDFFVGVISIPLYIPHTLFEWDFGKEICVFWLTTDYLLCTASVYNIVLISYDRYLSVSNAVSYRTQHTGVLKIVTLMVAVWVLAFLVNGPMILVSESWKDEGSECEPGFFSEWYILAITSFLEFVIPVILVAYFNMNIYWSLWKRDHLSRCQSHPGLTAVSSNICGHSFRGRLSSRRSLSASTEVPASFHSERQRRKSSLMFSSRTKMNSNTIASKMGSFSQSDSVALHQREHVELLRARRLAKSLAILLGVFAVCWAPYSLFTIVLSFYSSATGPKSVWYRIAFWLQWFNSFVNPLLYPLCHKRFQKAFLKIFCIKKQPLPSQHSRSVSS
Kind of assay: Binding Assay on Recombinant Human Histamine H4 Receptor. The settings on record: Table 1; [3H] histamine competition binding, membranes of SK-N-MC cells transfected with human H4 receptor; average of results. The method, then: Binding Assay on Recombinant Human Histamine H4 Receptor.
Cell pellets from SK-N-MC cells stably or transiently transfected with human H4 receptor were used for the binding assays. Cell pellets were homogenized in 50 mM Tris/5 mM EDTA buffer and supernatants from an 800g spin were collected and recentrifuged at 30,000g for 30 min. Pellets were rehomogenized in 50 mM Tris/5 mM EDTA buffer. […] Compounds were tested in free base, hydrochloride salt, or trifluoroacetic acid form. Nonspecific binding was defined with 100 μM cold histamine. […] Membranes were harvested by rapid filtration using the 96 well Brandel system or a cell harvester using a Whatman GF/C filter or filter plates treated with 0.5% polyethylenimine (PEI), and washed 4 times with ice-cold 50 mM Tris/5 mM EDTA buffer. Filters were then dried, mixed with scintillant and radioactive counts were determined. […] Data marked with an asterisk (*) were obtained by the cell harvester method. Where activity is shown as greater than (>) a particular value, the value is the highest concentration tested.
Turning to `CC(C)c1cc(N2C[C@H]3CN(C)C[C@H]3C2)nc(N)n1` [Example 18, 4-Isopropyl-6-(cis-5-methyl-hexahydro-pyrrolo[3,4-c]pyrrol-2-yl)-pyrimidin-2-ylamine], the Ki (in general, a dissociation constant, usually derived from enzyme kinetics or from competition with a known ligand) came to 0.017 µM.

In the case of `CN1C[C@@H]2CN(c3cc(C4CCC4)nc(N)n3)C[C@@H]2C1` [Example 49, 4-Cyclobutyl-6-(cis-5-methyl-hexahydro-pyrrolo[3,4-c]pyrrol-2-yl)-pyrimidin-2-ylamine], the Ki is 0.05 µM.

For the molecule `Nc1nc(Cc2ccccc2)cc(N2CCNCC2)n1` [Example 62, 4-Benzyl-6-piperazin-1-yl-pyrimidin-2-ylamine], the Ki came out at 0.03 µM.

As to `CC(C)c1cc(N2CCNCC2)nc(N)n1` [Example 8, 4-Isopropyl-6-piperazin-1-yl-pyrimidin-2-ylamine], the inhibitory constant (Ki) came to 0.003 µM.

In the case of `Nc1nc(C2CCC2)cc(N2CC3CCCNC3C2)n1` (stereo not drawn) [Example 50, 4-Cyclobutyl-6-(cis-octahydro-pyrrolo[3,4-b]pyridin-6-yl)-pyrimidin-2-ylamine], the Ki is 0.003 µM.

Regarding `Nc1nc2c(c(N3C[C@H]4CCN[C@H]4C3)n1)CCCC2` [Example 70, (R,R)-4-(Hexahydro-pyrrolo[3,4-b]pyrrol-5-yl)-5,6,7,8-tetrahydro-quinazolin-2-ylamine], the Ki stood at 0.404 µM.

Regarding `CN[C@@H]1CCN(c2nc(N)nc(C)c2C)C1` [Example 28, (R)-4,5-Dimethyl-6-(3-methylamino-pyrrolidin-1-yl)-pyrimidin-2-ylamine], the Ki was found to be 0.357 µM.

As to `CC(C)c1cc(N2CCC[C@@H](N)C2)nc(N)n1` [Example 9, (R)-4-(3-Amino-piperidin-1-yl)-6-isopropyl-pyrimidin-2-ylamine], the Ki was determined as 0.82 µM.

The same assay, now with this note: Table 2, data marked with an asterisk (*): obtained by the cell harvester method; [3H] histamine competition binding, SK-N-MC membranes.
As to `Nc1nc(C2Cc3ccccc3C2)cc(N2CC3CCCNC3C2)n1` (stereo not shown) [Example 251, 4-Indan-2-yl-6-(octahydro-pyrrolo[3,4-b]pyridin-6-yl)-pyrimidin-2-ylamine], the Ki was found to be 0.02 µM.

As for `CC(C)c1cc(N2CCN(C)CC2)nc(N)n1` [Example 95, 4-Isopropyl-6-(4-methyl-piperazin-1-yl)-pyrimidin-2-ylamine], the Ki was 0.008 µM.

The same assay, now with this note: Table 2; [3H] histamine competition binding, membranes of SK-N-MC cells transfected with human H4 receptor; average of results.
On to `CCCCc1cc(N2CCN(C)CC2)nc(N)n1` [Example 136, 4-Butyl-6-(4-methyl-piperazin-1-yl)-pyrimidin-2-ylamine], for which the Ki worked out at 0.001 µM.

As for `CC(C)c1cc(NCCN)nc(N)n1` [Example 89, (2-Amino-ethyl)-6-isopropyl-pyrimidine-2,4-diamine], the Ki is 0.019 µM.

For `Nc1nc(C2CCOC2)cc(N2CCCNCC2)n1` (stereo not shown) [Example 192, 4-[1,4]-Diazepan-1-yl-6-(tetrahydro-furan-3-yl)-pyrimidin-2-ylamine], the Ki is 0.017 µM.

With `Nc1nc(C2CCCC2)cc(N2C[C@H]3CCN[C@H]3C2)n1` [Example 83, (R,R)-4-Cyclopentyl-6-(hexahydro-pyrrolo[3,4-b]pyrrol-5-yl)-pyrimidin-2-ylamine], the Ki was 0.003 µM.

For `Nc1nc(C2CCOCC2)cc(N2CC[C@@H](N)C2)n1` [Example 175, (R)-4-(3-Amino-pyrrolidin-1-yl)-6-(tetrahydro-pyran-4-yl)-pyrimidin-2-ylamine], the inhibition constant (Ki) was found to be 0.085 µM.

For the molecule `Nc1nc(Cc2ccsc2)cc(N2CC3CCCNC3C2)n1` (stereo not drawn) [Example 211, 4-(cis-Octahydro-pyrrolo[3,4-b]pyridin-6-yl)-6-thiophen-3-ylmethyl-pyrimidin-2-ylamine], the Ki amounted to 0.004 µM.

With `CC(C)Cc1cc(N2CCNCC2)nc(N)n1` [Example 147, 4-Isobutyl-6-piperazin-1-yl-pyrimidin-2-ylamine], the Ki is 0.004 µM.

For `Nc1nc(C2CCOC2)cc(N2CCNCC2)n1` (single isomer, unassigned; (+)) [Example 194, (+)-4-piperazin-1-yl-6-(tetrahydro-furan-3-yl)-pyrimidin-2-ylamine], the inhibition constant Ki worked out at 0.049 µM.

For the molecule `NCCNc1cc(C2CCOC2)nc(N)n1` (stereo not shown) [Example 195, N^4-(2-Amino-ethyl)-6-(tetrahydro-furan-3-yl)-pyrimidine-2,4-diamine], the inhibition constant (Ki) was 0.059 µM.

In the case of `CN(CCN)c1cc(C2CCOCC2)nc(N)n1` [Example 177, N^4-(2-Amino-ethyl)-N^4-methyl-6-(tetrahydro-pyran-4-yl)-pyrimidine-2,4-diamine], the Ki was 1.03 µM.

Take `Nc1nc(C2CCCC2)cc(N2CC3NCCOC3C2)n1` (single isomer, unassigned) [Example 88, 4-Cyclopentyl-6-(cis-hexahydro-pyrrolo[3,4-b][1,4]oxazin-6-yl)-pyrimidin-2-ylamine]: the Ki came out at 0.52 µM.

Regarding `Nc1nc(C2CC2)cc(N2CC[C@@H](N)C2)n1` [Example 123, (R)-4-(3-Amino-pyrrolidin-1-yl)-6-cyclopropyl-pyrimidin-2-ylamine], the Ki was 0.004 µM.

Consider `COc1c(C2CCCC2)nc(N)nc1N1CCNCC1` [Example 186, 4-Cyclopentyl-5-methoxy-6-piperazin-1-yl-pyrimidin-2-ylamine], for which the Ki is 0.213 µM.

In the case of `Nc1nc2c(c(N3CC(N)C3)n1)CCCC2` [Example 253, 4-(3-Amino-azetidin-1-yl)-5,6,7,8-tetrahydro-quinazolin-2-ylamine], the Ki was greater than 10 µM.

For the molecule `Nc1nc(C2CCCC2)cc(N2CC3CNCC3C2)n1` (stereo not shown) [Example 87, 4-Cyclopentyl-6-(hexahydro-pyrrolo[3,4-c]pyrrol-2-yl)-pyrimidin-2-ylamine], the inhibition constant Ki stood at 0.328 µM.

Turning to `Nc1nc(Cc2ccsc2)cc(N2CCNCC2)n1` [Example 209, 4-piperazin-1-yl-6-thiophen-3-ylmethyl-pyrimidin-2-ylamine], the Ki amounted to 0.002 µM.

In the case of `NCCNc1cc(Cc2ccsc2)nc(N)n1` [Example 212, N^4-(2-Amino-ethyl)-6-thiophen-3-ylmethyl-pyrimidine-2,4-diamine], the Ki was found to be 0.012 µM.

With `Nc1nc(Cc2ccc(Cl)cc2)cc(N2C[C@H]3CNC[C@H]3C2)n1` [Example 237, 4-(4-Chloro-benzyl)-6-(cis-hexahydro-pyrrolo[3,4-c]pyrrol-2-yl)-pyrimidin-2-ylamine], the inhibition constant (Ki) was found to be 0.257 µM.

Regarding `CN[C@H]1CCN(c2cc(COC)nc(N)n2)C1` [Example 119, (S)-4-Methoxymethyl-6-(3-methylamino-pyrrolidin-1-yl)-pyrimidin-2-ylamine], the Ki is 0.153 µM.

Turning to `CN1CCN(c2cc(CCc3ccccc3)nc(N)n2)CC1` [Example 179, 4-(4-Methyl-piperazin-1-yl)-6-phenethyl-pyrimidin-2-ylamine], the Ki worked out at 0.006 µM.

Turning to `CCCCc1cc(N2CC3CCC(C2)N3)nc(N)n1` [Example 143, 4-Butyl-6-(3,8-diaza-bicyclo[3.2.1]oct-3-yl)-pyrimidin-2-ylamine], the Ki amounted to 0.013 µM.

With `CCCCc1cc(N2C[C@H]3CN(C)C[C@H]3C2)nc(N)n1` [Example 139, 4-Butyl-6-(cis-5-methyl-hexahydro-pyrrolo[3,4-c]pyrrol-2-yl)-pyrimidin-2-ylamine], the Ki worked out at 0.138 µM.

For the molecule `CN1C[C@@H]2CN(c3cc(C4CC4)nc(N)n3)C[C@@H]2C1` [Example 120, 4-Cyclopropyl-6-(cis-5-methyl-hexahydro-pyrrolo[3,4-c]pyrrol-2-yl)-pyrimidin-2-ylamine], the Ki was 0.113 µM.

For `COCc1cc(N2C[C@H]3CCCN[C@H]3C2)nc(N)n1` [Example 226, (R,R)-4-Methoxymethyl-6-(octahydro-pyrrolo[3,4-b]pyridin-6-yl)-pyrimidin-2-ylamine], the Ki is 0.014 µM.

The record behind these values is patent US8716475B2, “2-aminopyrimidine modulators of the histamine H4 receptor” (Janssen Pharmaceutica NV, priority 2007, dated 2014).
